Experimental data from patent publication US20240208954A1, “OXADIAZOLE COMPOUND, PREPARATION METHOD THEREFOR, PHARMACEUTICAL COMPOSITION AND USE THEREOF” (SHANGHAI INSTITUTE OF MATERIA MEDICA, CHINESE ACADEMY OF …, priority 2020, published 2024).
Several values for one entry are separate records, joined by “and”; a condition that tells them apart may be missing. Equal values may be shown once. Read-outs that look alike come from different tables or passages of the source.

Legend:
S1PR1 = molecular target: T1, S1PR1 (Homo sapiens, UniProt P21453); test: Agonistic activity test on S1P receptors, FLIPR, CHO-K1/Ga15/EDG1 cells; type: cell-based; settings: CHO-K1/Ga15/EDG1 cells, FLIPR agonist mode; read-out: S1PR1 EC50
T1 construct: host or cells: CHO-K1 co-expressing Ga15
Procedure: Instrument: FLIPR™ TETRA (Molecular Device)
Experimental materials: CHO-K1/Ga15/EDG1 cells constructed by GenScript autonomously.
Sample processing: Before the experiment, the working solution with the corresponding concentration was prepared by diluting with GPCR dilution buffer.
After 18-20 hours, the cell culture plat was taken out and added with dye working solution, and then the plate was placed in a 37° C./5% CO2 incubator for 1 hour, and finally equilibrated at room temperature for 15 minutes. Positive agonist working solution was added, and RFU values were detected and recorded. […] The positive agonist working fluid was added to the cell culture plate at the 21st second. […] The antagonistic mode detection program, the overall detection time of the instrument was 120 seconds, and positive antagonist working solution was added to the cell culture plate at the 21st second.
Data processing: Raw data were obtained via ScreenWorks (version 3.1) and saved as *FMD files on the Kingsray computer network system. Data were collected and analyzed using Excel and GraphPad Prism 6 software programs. For each well, the average fluorescence intensity value from 1 to 20 seconds was used as the baseline, and the maximum fluorescence intensity value from 21 to 120 seconds minus the minimum fluorescence intensity value from 21 to 120 seconds was the relative fluorescence intensity value (ARFU), from which the percentage activation or inhibition can be calculated based on the following equation.
% Activation Rate=(ΔRFUCompound-ΔRFUBackground)/(ΔRFUAgonist control-ΔRFUBackground)×100%
The data was analyzed using GraphPad Prism 6 with a four-parameter equation to calculate the EC50 and IC50 values. The four-parameter equation was as follows: y=Bottom+(Top-Bottom)/(1+10^((LogEC50/IC50-X)*HillSlope)), wherein X is the Log value of the concentration and Y was the inhibition rate.

[1] = Preliminary assessment of in vivo pharmacokinetics in rats; settings: for Vd: read-out: Vss; for concentration at 0.083 h / concentration at 0.25 h / concentration at 0.5 h / concentration at 1 h / concentration at 2 h / concentration at 4 h / concentration at 6 h / concentration at 8 h / concentration at 24 h: read-out: Plasma drug concentrations in rats; for MRT inf: read-out: MRT0-∞
[2] = rat, in vivo, rats, intravenous 2 mg/kg, mean
[3] = rat, plasma, iv, 2 mg/kg, rats, intravenous 2 mg/kg, individual animals 1-3
[4] = rat, plasma, iv, 2 mg/kg, rats, intravenous 2 mg/kg, mean
[5] = rat, plasma, po, 20 mg/kg, rats, intragastric 20 mg/kg, individual animals 4-6
[6] = rat, plasma, po, 20 mg/kg, rats, intragastric 20 mg/kg, mean
[7] = rats, intragastric 20 mg/kg, individual animals 4-6, listed as DC411151
[8] = rats, intravenous 2 mg/kg, individual animals 1-3, listed as DC411151, 2 mg/kg

T1 sequence (P21453 whole entry): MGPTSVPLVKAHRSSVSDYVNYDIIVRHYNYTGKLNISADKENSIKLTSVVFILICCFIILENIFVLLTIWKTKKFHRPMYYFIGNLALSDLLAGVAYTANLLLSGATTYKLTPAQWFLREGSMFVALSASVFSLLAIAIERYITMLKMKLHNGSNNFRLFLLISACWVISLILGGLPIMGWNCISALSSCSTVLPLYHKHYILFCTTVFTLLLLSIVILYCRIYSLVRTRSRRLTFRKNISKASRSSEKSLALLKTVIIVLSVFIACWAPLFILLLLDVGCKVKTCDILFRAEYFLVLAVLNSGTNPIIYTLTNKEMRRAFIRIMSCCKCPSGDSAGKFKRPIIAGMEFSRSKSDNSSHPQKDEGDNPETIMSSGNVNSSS

## CC(C)Oc1ccc(-c2nc(-c3ccc(CN4CC(C(=O)O)C4)c4ccccc34)no2)cc1C#N.Cl [Compound A1, 1-((4-(5-(3-cyano-4-isopropoxyphenyl)-1,2,4-oxadiazol-3-yl)naphthalen-1-yl)methyl) azetidine-3-carboxylic acid hydrochloric acid]
S1PR1
  EC50: 48 nM
[1]; intragastric 20 mg/kg, 0.25 h, individual animals 4-6, listed as DC411151
  Plasma drug concentrations in rats: 1960 ng/mL and 696 ng/mL and 1150 ng/mL
[1]; intragastric 20 mg/kg, 0.5 h, individual animals 4-6, listed as DC411151
  Plasma drug concentrations in rats: 1570 ng/mL and 2600 ng/mL
[1]; intragastric 20 mg/kg, 1 h, individual animals 4-6, listed as DC411151
  Plasma drug concentrations in rats: 2070 ng/mL and 3070 ng/mL
[1]; intragastric 20 mg/kg, 2 h, individual animals 4-6, listed as DC411151
  Plasma drug concentrations in rats: 1220 ng/mL and 2150 ng/mL
[1]; intragastric 20 mg/kg, 4 h, individual animals 4-6, listed as DC411151
  Plasma drug concentrations in rats: 635 ng/mL and 841 ng/mL
[1]; intragastric 20 mg/kg, 6 h, individual animals 4-6, listed as DC411151
  Plasma drug concentrations in rats: 350 ng/mL and 289 ng/mL
[1]; intragastric 20 mg/kg, 8 h, individual animals 4-6, listed as DC411151
  Plasma drug concentrations in rats: 64.0 ng/mL and 57.0 ng/mL
[1]; intragastric 20 mg/kg, 24 h, individual animals 4-6, listed as DC411151
  Plasma drug concentrations in rats: 2.49 ng/mL and 2.92 ng/mL
[1]; intravenous 2 mg/kg, 0.083 h, individual animals 1-3, listed as DC411151, 2 mg/kg
  Plasma drug concentrations in rats: 3720 ng/mL and 3390 ng/mL
[1]; intravenous 2 mg/kg, 0.25 h, individual animals 1-3, listed as DC411151, 2 mg/kg
  Plasma drug concentrations in rats: 2650 ng/mL and 2700 ng/mL
[1]; intravenous 2 mg/kg, 0.5 h, individual animals 1-3, listed as DC411151, 2 mg/kg
  Plasma drug concentrations in rats: 1710 ng/mL and 1890 ng/mL
[1]; intravenous 2 mg/kg, 1 h, individual animals 1-3, listed as DC411151, 2 mg/kg
  Plasma drug concentrations in rats: 1110 ng/mL and 951 ng/mL
[1]; intravenous 2 mg/kg, 2 h, individual animals 1-3, listed as DC411151, 2 mg/kg
  Plasma drug concentrations in rats: 563 ng/mL and 528 ng/mL
[1]; intravenous 2 mg/kg, 4 h, individual animals 1-3, listed as DC411151, 2 mg/kg
  Plasma drug concentrations in rats: 138 ng/mL and 172 ng/mL
[1]; intravenous 2 mg/kg, 6 h, individual animals 1-3, listed as DC411151, 2 mg/kg
  Plasma drug concentrations in rats: 51.4 ng/mL and 47 ng/mL
[1]; intravenous 2 mg/kg, 8 h, individual animals 1-3, listed as DC411151, 2 mg/kg
  Plasma drug concentrations in rats: 13.6 ng/mL and 16.9 ng/mL
[1]; intravenous 2 mg/kg, 24 h, individual animals 1-3, listed as DC411151, 2 mg/kg
  Plasma drug concentrations in rats: BQL and 1.94 ng/ml
[1]; rat, in vivo, po, rats, intragastric 20 mg/kg, individual animals 4-6, read-out: Tmax
  Tmax: 1 h
[1]; rat, in vivo, po, rats, intragastric 20 mg/kg, mean, read-out: AUC0-t
  AUC0-t: 8780 ng·h/mL
[1]; rat, in vivo, po, rats, intragastric 20 mg/kg, mean, read-out: Cmax
  Cmax: 2760 ng/mL
[1]; [2]
  clearance: 8.66 mL/min/kg
  half-life: 3.04 h
  Vd: 0.758 L/kg
[1]; rat, plasma, iv, 2 mg/kg, intravenous 2 mg/kg, 0.083 h, individual animals 1-3
  concentration at 0.083 h: 3940 ng/mL
[1]; rat, plasma, iv, 2 mg/kg, intravenous 2 mg/kg, 0.083 h, mean
  concentration at 0.083 h: 3680 ng/mL
[1]; rat, plasma, iv, 2 mg/kg, intravenous 2 mg/kg, 0.25 h, individual animals 1-3
  concentration at 0.25 h: 2950 ng/mL
[1]; rat, plasma, iv, 2 mg/kg, intravenous 2 mg/kg, 0.25 h, mean
  concentration at 0.25 h: 2770 ng/mL
[1]; rat, plasma, iv, 2 mg/kg, intravenous 2 mg/kg, 0.5 h, individual animals 1-3
  concentration at 0.5 h: 1570 ng/mL
[1]; rat, plasma, iv, 2 mg/kg, intravenous 2 mg/kg, 0.5 h, mean
  concentration at 0.5 h: 1720 ng/mL
[1]; rat, plasma, iv, 2 mg/kg, intravenous 2 mg/kg, 1 h, individual animals 1-3
  concentration at 1 h: 900 ng/mL
[1]; rat, plasma, iv, 2 mg/kg, intravenous 2 mg/kg, 1 h, mean
  concentration at 1 h: 987 ng/mL
[1]; rat, plasma, iv, 2 mg/kg, intravenous 2 mg/kg, 2 h, individual animals 1-3
  concentration at 2 h: 419 ng/mL
[1]; rat, plasma, iv, 2 mg/kg, intravenous 2 mg/kg, 2 h, mean
  concentration at 2 h: 503 ng/mL
[1]; rat, plasma, iv, 2 mg/kg, intravenous 2 mg/kg, 4 h, individual animals 1-3
  concentration at 4 h: 128 ng/mL
[1]; rat, plasma, iv, 2 mg/kg, intravenous 2 mg/kg, 4 h, mean
  concentration at 4 h: 146 ng/mL
[1]; rat, plasma, iv, 2 mg/kg, intravenous 2 mg/kg, 6 h, individual animals 1-3
  concentration at 6 h: 45.8 ng/mL
[1]; rat, plasma, iv, 2 mg/kg, intravenous 2 mg/kg, 6 h, mean
  concentration at 6 h: 48.1 ng/mL
[1]; rat, plasma, iv, 2 mg/kg, intravenous 2 mg/kg, 8 h, individual animals 1-3
  concentration at 8 h: 11.8 ng/mL
[1]; rat, plasma, iv, 2 mg/kg, intravenous 2 mg/kg, 8 h, mean
  concentration at 8 h: 14.1 ng/mL
[1]; rat, plasma, iv, 2 mg/kg, intravenous 2 mg/kg, 24 h, individual animals 1-3
  concentration at 24 h: 1.16 ng/mL
[1]; rat, plasma, iv, 2 mg/kg, intravenous 2 mg/kg, 24 h, mean
  concentration at 24 h: 1.55 ng/mL
[1]; [3]
  AUC(0-inf): 3570 ng·h/mL
  clearance: 9.34 mL/min/kg
  MRT inf: 1.2 h
  Vd: 0.672 L/kg
[1]; rat, plasma, iv, 2 mg/kg, rats, intravenous 2 mg/kg, individual animals 1-3, read-out: AUC0-t
  AUC0-t: 3550 ng·h/mL
[1]; [4]
  AUC(0-inf): 3860 ng·h/mL
  MRT inf: 1.47 h
[1]; rat, plasma, iv, 2 mg/kg, rats, intravenous 2 mg/kg, mean, read-out: AUC0-t
  AUC0-t: 3850 ng·h/mL
[1]; rat, plasma, oral, 20 mg/kg, intragastric 20 mg/kg, 0.25 h, mean
  concentration at 0.25 h: 1270 ng/mL
[1]; rat, plasma, oral, 20 mg/kg, intragastric 20 mg/kg, 0.5 h, individual animals 4-6
  concentration at 0.5 h: 3130 ng/mL
[1]; rat, plasma, oral, 20 mg/kg, intragastric 20 mg/kg, 0.5 h, mean
  concentration at 0.5 h: 2430 ng/mL
[1]; rat, plasma, oral, 20 mg/kg, intragastric 20 mg/kg, 1 h, individual animals 4-6
  concentration at 1 h: 2560 ng/mL
[1]; rat, plasma, oral, 20 mg/kg, intragastric 20 mg/kg, 1 h, mean
  concentration at 1 h: 2570 ng/mL
[1]; rat, plasma, oral, 20 mg/kg, intragastric 20 mg/kg, 2 h, individual animals 4-6
  concentration at 2 h: 2290 ng/mL
[1]; rat, plasma, oral, 20 mg/kg, intragastric 20 mg/kg, 2 h, mean
  concentration at 2 h: 1890 ng/mL
[1]; rat, plasma, oral, 20 mg/kg, intragastric 20 mg/kg, 4 h, individual animals 4-6
  concentration at 4 h: 884 ng/mL
[1]; rat, plasma, oral, 20 mg/kg, intragastric 20 mg/kg, 4 h, mean
  concentration at 4 h: 787 ng/mL
[1]; rat, plasma, oral, 20 mg/kg, intragastric 20 mg/kg, 6 h, individual animals 4-6
  concentration at 6 h: 322 ng/mL
[1]; rat, plasma, oral, 20 mg/kg, intragastric 20 mg/kg, 6 h, mean
  concentration at 6 h: 320 ng/mL
[1]; rat, plasma, oral, 20 mg/kg, intragastric 20 mg/kg, 8 h, individual animals 4-6
  concentration at 8 h: 65.1 ng/mL
[1]; rat, plasma, oral, 20 mg/kg, intragastric 20 mg/kg, 8 h, mean
  concentration at 8 h: 62 ng/mL
[1]; rat, plasma, oral, 20 mg/kg, intragastric 20 mg/kg, 24 h, individual animals 4-6
  concentration at 24 h: 4.33 ng/mL
[1]; rat, plasma, oral, 20 mg/kg, intragastric 20 mg/kg, 24 h, mean
  concentration at 24 h: 3.25 ng/mL
[1]; rat, plasma, oral, rats, 20 mg/kg by gavage vs 2 mg/kg intravenous, read-out: absolute bioavailability
  bioavailability: 22.8%
[1]; rat, plasma, po, 20 mg/kg, rats, 20 mg/kg by gavage, range over animals, read-out: peak time Tmax
  Tmax: 0.5 to 1 h
[1]; [5]
  AUC(0-inf): 9600 ng·h/mL
  half-life: 2.45 h
  MRT inf: 2.55 h
[1]; rat, plasma, po, 20 mg/kg, rats, intragastric 20 mg/kg, individual animals 4-6, read-out: AUC0-t
  AUC0-t: 9590 ng·h/mL
[1]; rat, plasma, po, 20 mg/kg, rats, intragastric 20 mg/kg, individual animals 4-6, read-out: Cmax
  Cmax: 3070 ng/mL
[1]; rat, plasma, po, 20 mg/kg, rats, intragastric 20 mg/kg, individual animals 4-6, read-out: Tmax
  Tmax: 0.5 h
[1]; [6]
  AUC(0-inf): 8790 ng·h/mL
  half-life: 2.49 h
  MRT inf: 2.72 h
[1]; rat, plasma, po, 20 mg/kg, rats, intragastric 20 mg/kg, mean, read-out: Tmax
  Tmax: 0.833 h
[1]; [7]
  AUC0-t: 10100 ng·h/mL and 6710 ng·h/mL
  AUC0-∞: 10100 ng·h/mL and 6720 ng·h/mL
  Cmax: 3130 ng/mL and 2070 ng/mL
  MRT0-∞: 2.62 h and 3.00 h
  t1/2: 2.5 h and 2.51 h
[1]; rats, intravenous 2 mg/kg
  clearance classification: low clearance drug
  plasma clearance as share of rat liver blood flow (about 55 mL/min/kg): 15.7%
[1]; [8]
  AUC0-t: 4030 ng·h/mL and 3960 ng·h/mL
  AUC0-∞: 4040 ng·h/mL and 3980 ng·h/mL
  CL: 8.26 mL/min/kg and 8.38 mL/min/kg
  MRT0-∞: 1.52 h and 1.69 h
  Vss: 0.752 L/kg and 0.85 L/kg
  t1/2: 1.15 h and 3.67 h and 4.3 h
